According to patent US9682126B2, “Postprandial gastrokinetic agent” (ZERIA PHARMACEUTICAL CO., LTD., priority 2013, dated 2017):
Like-named read-outs stand apart in the source and are kept apart here. Ends that are not written are not given here. * marks the point of attachment. Octanoyl = CCCCCCCC(=O)*

Assays:
[1] = test system: subjects; conditions: cited from earlier work
[2] = test system: Suncus murinus; assay: Postprandial motility by co-administration of ghrelin and motilin, ΔMI (Example 3); assay type: in vivo
Procedure: Each of Suncus motilin (Scrum Inc., Tokyo, Japan) and human ghrelin (Asubio Pharma Co., Ltd., Hyogo, Japan) was dissolved in PBS containing 0.1% bovine serum albumin.
Suncus murinus (male, outbred KAT strain, 7 to 39 weeks old, 56 to 91 g) was used for the experiment. The Each animal was bred in a plastic cage provided with an empty can as a nest box under the following conditions: temperature at 23±2° C., illumination between 8:00 and 20:00, and free intake of commercial trout feed (SP, Nippon Formula Feed Mfg Co., Ltd., Yokohama, Japan).
After 3 hours of fasting, Suncus murinus was anesthetized by an intraperitoneal injection of pentobarbital sodium (50 mg/kg). Through a midline incision, the stomach was exposed outside the body, and a force transducer was fixed via suture in the circular muscle direction of the body of stomach. The wire extending from the force transducer was inserted through the abdominal wall, passed under the skin, and exposed at the back of the neck.
An intravenous catheter was inserted in the right jugular, and extracorporeally fixed to the back. The catheter was filled with heparinized saline (100 units/mL) to prevent clotting.
Each of the operated Suncus murinus was allowed to recover for several days.
Drug administration and measurement of gastric motility were performed in the conscious, free-moving state without anesthesia.
2 g of feed was given to each Suncus murinus fastened (for 8 to 10 hours) for 10 minutes. After the intake of feed for 10 minutes, ghrelin (50, 1,000, or 3,000 ng/kg), motilin (300, 500, 1,000, or 3,000 ng/kg), or a mixed solution of ghrelin (15 or 50 ng/kg) and motilin (100, 200, or 300 ng/kg) was intravenously administered through a jugular vein catheter rapidly.
Amplified analog signals were converted into digital signals by an analog-to-digital converter (ADC-20, Pico Technology Ltd, St Neots, UK), and the digital signals were recorded on a computer.
Phase III contractions of MMC in conscious Suncus murinus were defined on the basis of those in dogs and humans (that is, clustered contractions with an amplitude of 8 g or more that lasts for 5 minutes or more).
Gastric motility was quantitated using a motility index (ΔMI). A motility index (ΔMI) based on a drug was calculated using the following equation. ΔMI (%)=(A−C)/B×100 A: AUC of contractions for 10 minutes during which the drug was administered B: AUC of 10-minute spontaneous phase III contractions appeared before administration of the drug C: (AUC of contractions appeared for 5 minutes between 5 and 10 minutes after the intake of feed)×2 (2) Results (FIG. 9) A. Action of Ghrelin Alone

[3] = test system: Suncus murinus; assay: Postprandial gastric motility, force transducer on stomach, motility index MI (Example 1); assay type: in vivo; conditions: ghrelin 50 ng/kg iv after 10-min feed intake
Procedure: Effects of administration of each of ghrelin and motilin and co-administration of ghrelin and motilin on postprandial gastric motility in Suncus murinus were studied. Each of Suncus motilin (Scrum Inc., Tokyo, Japan) and human ghrelin (Asubio Pharma Co., Ltd., Hyogo, Japan) was dissolved in phosphate buffered saline (PBS) containing 0.1% bovine serum albumin. Suncus murinus (male, outbred KAT strain, 8 to 9 weeks old, 73 to 90 g) was used for the experiment. Each animal was bred in a plastic cage provided with an empty can as a nest box under the following conditions: temperature at 23±2° C., illumination between 8:00 and 20:00, and free intake of commercial trout feed (SP, Nippon Formula Feed Mfg Co., Ltd., Yokohama, Japan). After 3 hours of fasting, Suncus murinus was anesthetized by an intraperitoneal injection of pentobarbital sodium (50 mg/kg). Through a midline incision, the stomach was exposed outside the body, and a force transducer was fixed via suture in the circular muscle direction of the body of stomach. […] Amplified analog signals were converted into digital signals by an analog-to-digital converter (ADC-20, Pico Technology Ltd, St Neots, UK), and the digital signals were recorded on a computer. […] Gastric motility was quantitated using a motility index (MI). A motility index (MI) based on a drug was calculated using the following equation. […]

[4] = test system: isolated stomach of Suncus murinus; conditions: ghrelin alone, even at a high dose, in vitro; cited from earlier work
[5] = test system: Suncus murinus; assay: Gastric motility in interdigestive period, sham-operated vs vagotomized (Example 2); assay type: in vivo; conditions: for amplitude of spontaneous phase II contractions: ghrelin 0.1, 0.3, 1, 3, or 10 μg/kg/min iv over 10 minutes in phase II
Procedure: Each of Suncus motilin (Scrum Inc., Tokyo, Japan) and human ghrelin (Asubio Pharma Co., Ltd., Hyogo, Japan) were dissolved in PBS containing 0.1% bovine serum albumin. Suncus murinus (male, outbred KAT strain, 7 to 15 weeks old, 60 to 100 g) was used for the experiment. Each animal was bred in a plastic cage provided with an empty can as a nest box under the following conditions: temperature at 23±2° C., illumination between 8:00 and 20:00, and free intake of commercial trout feed (SP, Nippon Formula Feed Mfg Co., Ltd., Yokohama, Japan). After 3 hours of fasting, Suncus murinus was anesthetized by an intraperitoneal injection of pentobarbital sodium (50 mg/kg). Through a midline incision, the stomach was exposed outside the body, and a force transducer was fixed via suture in the circular muscle direction of the body of stomach. The wire extending from the force transducer was inserted through the abdominal wall, passed under the skin, and exposed at the back of the neck. Thereafter, truncal vagotomy was performed. A lower portion of the esophagus was exposed, both branches of the vagus nerve were isolated, and about 3 mm of the vagus nerve was excised above the hepatic branch and the celiac branch. For sham-operated Suncus murinus, the vagus nerve was exposed, but not excised. An intravenous catheter was inserted in the right jugular, and extracorporeally fixed to the back. The catheter was filled with heparinized saline (100 units/mL) to prevent clotting. From 2 days after the operation, the gastric motility was recorded. Administration of motilin was initiated 10 minutes after completion of spontaneous phase III. Synthesized suncus motilin was continuously injected at 50 ng/kg/min over 10 minutes, and the continuously injected amount was 50 μL/100 g BW/min. Administration of ghrelin was initiated 10 minutes after completion of spontaneous phase II. […] Amplified analog signals were converted into digital signals by an analog-to-digital converter (ADC-20, Pico Technology Ltd, St Neots, UK), and the digital signals were recorded on a computer. Phase III contractions of MMC in conscious Suncus murinus were defined on the basis of those in dogs and humans (that is, clustered contractions with an amplitude of 8 g or more that lasts for 5 minutes or more). Gastric motility was quantitated using a motility index (MI). A motility index (MI) based on a drug was calculated using the following equation. MI (%)=A/B×100 A: AUC of contractions for 10 minutes during which the drug was administered B: […] Statistical analysis After ANOVA, Student's t test was performed.

[6] = ghrelin 50 ng/kg iv after feed intake
[7] = ghrelin 1,000 ng/kg iv after feed intake
[8] = ghrelin 3,000 ng/kg iv after feed intake

Row | Compound | gastric emptying ([1]; mitemcinal administered to fasting subjects) | Motility Index (ΔMI) [2, 6] | contractions of the body of the stomach [2, 6] | Motility Index (ΔMI) [2, 7] | contractions of the body of the stomach [2, 7] | Motility Index (ΔMI) [2, 8] | contractions of the body of the stomach [2, 8] | gastric emptying ([1]; continuous intravenous or massive administration of ghrelin after food intake, healthy subjects and patients with diabetes) | contractions of the body of the stomach [3] | gastric contractions [4] | MI during administration of ghrelin, sham-operated compared with vagotomized ([5]; phase II of MMC, fasted) | amplitude of spontaneous phase II contractions ([5]; sham-operated) | amplitude of spontaneous phase II contractions ([5]; vagotomized)
1 | CC[C@H]1OC(=O)[C@H](C)[C@@H](O[C@H]2C[C@@](C)(OC)[C@@H](O)[C@H](C)O2)[C@H](C)[C@@H](O[C@@H]2O[C@H](C)C[C@H](N(C)C(C)C)[C@H]2O)[C@@]2(C)CC(C)=C(O2)[C@H](C)C(=O)[C@]1(C)OC [mitemcinal] | enhances gastric emptying |  |  |  |  |  |  |  |  |  |  |  | 
2 | ghrelin: human ghrelin (Asubio Pharma); 28-amino acid residue peptide, hydroxyl group of serine at position 3 esterified by octanoic acid (GSS(Octanoyl)FLSPEHQRVQQRKESKKPPAKLQPR; UniProt Q9UBU3 24-51, looked up) |  | About 2.8% | did not induce contractions of the body of the stomach | About 7.6% | did not induce contractions of the body of the stomach | About 0.03% | did not induce contractions of the body of the stomach | accelerates gastric emptying | did not induce contractions of the body of the stomach | does not accelerate gastric contractions | higher | amplified the amplitude of spontaneous phase II contractions | did not change the amplitude of spontaneous phase II contractions
